Results from ChEMBL document CHEMBL2375269, “Triazolothiadiazoles and triazolothiadiazines--biologically attractive scaffolds” (Eur J Med Chem, 2013).
In brackets after ≈: the same amount, converted by molar mass.

What was measured:
[1] = Inhibition of acetylcholine esterase (unknown origin) using acetylthiocholine as substrate incubated for 15 mins prior to substrate addition measured after 5 mins by spectrophotometry; parameters: species or system Homo sapiens
[2] = system: Radical scavenging activity; experiment: Antioxidant activity of the compound assessed as DPPH radical scavenging activity after 30 mins by spectrophotometry; assay type: functional
[3] = Inhibition of urease (unknown origin) assessed as ammonia synthesis after 30 mins by microplate reader analysis; parameters: species or system Homo sapiens
[4] = biological target: Intestinal-type alkaline phosphatase (Bos taurus, UniProt P19111); experiment: Inhibition of calf intestinal alkaline phosphatase using p-NPP as substrate incubated for 10 mins prior to substrate addition measured after 30 mins by spectrophotometry
Bacillus subtilis = experiment: Antibacterial activity against Bacillus subtilis after 24 hrs by serial tube dilution method; assay type: functional
Shigella flexneri = experiment: Antibacterial activity against Shigella flexneri after 24 hrs by serial tube dilution method; assay type: functional
Escherichia coli = experiment: Antibacterial activity against Escherichia coli after 24 hrs by serial tube dilution method; assay type: functional
Staphylococcus aureus = experiment: Antibacterial activity against Staphylococcus aureus after 24 hrs by serial tube dilution method; assay type: functional

Chain of Intestinal-type alkaline phosphatase (P19111 whole entry): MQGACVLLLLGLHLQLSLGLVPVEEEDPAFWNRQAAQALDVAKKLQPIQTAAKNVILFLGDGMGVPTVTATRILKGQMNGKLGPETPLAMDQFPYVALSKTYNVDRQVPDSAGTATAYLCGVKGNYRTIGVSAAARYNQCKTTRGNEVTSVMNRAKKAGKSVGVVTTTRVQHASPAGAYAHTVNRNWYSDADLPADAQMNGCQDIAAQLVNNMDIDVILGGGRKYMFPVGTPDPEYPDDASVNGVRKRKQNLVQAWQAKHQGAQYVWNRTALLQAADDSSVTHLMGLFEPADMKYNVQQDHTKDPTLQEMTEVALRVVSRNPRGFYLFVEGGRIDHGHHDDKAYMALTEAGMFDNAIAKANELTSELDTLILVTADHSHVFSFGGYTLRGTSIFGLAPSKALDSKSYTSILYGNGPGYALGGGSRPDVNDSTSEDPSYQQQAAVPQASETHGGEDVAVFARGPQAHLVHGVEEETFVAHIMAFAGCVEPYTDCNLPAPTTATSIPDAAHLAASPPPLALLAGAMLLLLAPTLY

Row | SMILES | IC50 [1] [µM] | also measured
1 | Fc1cccc(Cc2nnc3sc(-c4ccoc4)nn23)c1 | 1.78 | IC50 [2]: 31.5 µM
2 | COc1ccc(-c2nnc3sc(-c4ccoc4)nn23)cc1 | 1.78 | IC50 [3]: 0.764 µM; Ki [3]: 0.45 µM
3 | Brc1ccc(-c2nnc3sc(-c4ccoc4)nn23)cc1 | 1.78 | IC50 [4]: 0.061 µM
4 | Brc1cccc(-c2nnc3sc(-c4ccoc4)nn23)c1 | 0.344 | 
5 | Fc1cnc(-c2nn3c(-c4ccccc4Cl)nnc3s2)c(F)c1 |  | MIC (Bacillus subtilis): 0.156 mg/L (≈ 0.446 µM); MIC (Shigella flexneri): 0.156 mg/L (≈ 0.446 µM); MIC (Escherichia coli): 0.156 mg/L (≈ 0.446 µM); MIC (Staphylococcus aureus): 0.156 mg/L (≈ 0.446 µM)
6 | Clc1ccccc1-c1nnc2sc(-c3ccoc3)nn12 | 1.78 | 
7 | Clc1ccc(-c2nnc3sc(-c4ccoc4)nn23)cc1 | 1.78 | 
8 | Fc1ccccc1Cc1nnc2sc(-c3ccoc3)nn12 | 1.78 | 
9 | Fc1ccc(Cc2nnc3sc(-c4ccoc4)nn23)cc1 | 1.78 | 
10 | COc1ccccc1-c1nnc2sc(-c3ccoc3)nn12 | 1.78 | 
11 | COc1cccc(-c2nnc3sc(-c4ccoc4)nn23)c1 | 1.78 | 
12 | COc1cccc(Cc2nnc3sc(-c4ccc(Cl)cc4)nn23)c1 |  | IC50 [2]: 9.04 µM
13 | CCCOC(=O)c1cc(O)c(O)c(O)c1 [PROPYL GALLATE] |  | IC50 [2]: 40.8 µM
